Laboratory results taken from ChEMBL document CHEMBL5050841, “Inhibitors of pick1 and uses thereof” (2021).
Activity calls are given as the source filed them.

Columns and labels:
Mus musculus [1] = test: Anti-hypersensitive activity in C57BL/6J mouse model of spared nerve injury-induced acute neuropathic pain assessed as increase in ipsilateral paw mechanical threshold at 10 micromol/kg, sc; type: functional, organism-based; conditions: dose 10.0 µmol/kg
[2] = Binding affinity towards PICK1 PDZ domain (unknown origin) measured by fluorescence polarization assay; design: species or system Homo sapiens
[3] = Inhibition of macroscopic off-rate of bound PICK1 in Tac-YFP-Dat C24 expressing human HEK293 supported cell membrane sheets; type: cell membranes
Rattus norvegicus [4] = test: Attenuation of cocaine reinstatement in 7 day cocaine treated rat assessed as effect on inactive lever response at 0.3 to 3 nmol/g, iv of TAMRA labeled compound treated for 45 mins prior to administration of cocaine injection; type: functional, organism-based; conditions: dose 0.3-3 nmol/g
[5] = Inhibition of recombinant rat SNAP-543-labeled PICK1 binding to Tac-YFP-Dat C24 expressing human HEK293 supported cell membrane sheets and measured by fluorescence polarization competition binding assay; type: cell membranes
Mus musculus [6] = species: Mus musculus; test: Anti-hypersensitive activity in mouse model of spared nerve injury-induced acute neuropathic pain assessed as reduction in GluA2 surface levels in spinal cord at 20 uM, IT by immunoblot analysis; type: functional, organism-based
Rattus norvegicus [7] = test: Attenuation of cocaine reinstatement in 7 day cocaine treated rat assessed as effect on locomotor activity at 3 nmol/g, iv of TAMRA labeled compound treated for 45 mins prior to administration of cocaine injection; type: functional, organism-based
[8] = Stability of compound in human plasma; type: ADME, cell-free
[9] = Stability of compound in PBS; type: physicochemical; conditions: buffer
Mus musculus [10] = species: Mus musculus; test: Anti-hypersensitive activity in mouse model of spared nerve injury-induced chronic neuropathic pain assessed as increase in paw withdrawal threshold at 20 uM, IT after 14 days by von Frey test; type: functional, organism-based; conditions: time 14.0 day
Mus musculus [11] = species: Mus musculus; test: Disruption of PICK1-GluA2 interaction in lumbar spinal cord lysates of male C57BL/6 mouse at 20 uM, IT and measured by co-immunoprecipitation assay; type: subcellular
Mus musculus [12] = species: Mus musculus; test: Disruption of PICK1-GluA2 interaction in lumbar spinal cord lysates of male C57BL/6 mouse assessed as reduction in GluA2 surface levels at 20 uM, IT and measured by immunoblot analysis; type: subcellular
Mus musculus [13] = species: Mus musculus; test: Anti-hypersensitive activity in mouse model of spared nerve injury-induced chronic neuropathic pain assessed as increase in paw withdrawal threshold at 20 uM, IT after 28 days by von Frey test; type: functional, organism-based; conditions: time 28.0 day
Hippocampal neurone = test: (§1) Binding affinity towards PICK1 in rat hippocampal neurons incubated for 1 hr and measured by DID staining method; type: cell-based
Rattus norvegicus [14] = test: Attenuation of cocaine reinstatement in 7 day cocaine treated rat assessed as reduction in sucrose seeking behaviour at 3 nmol/g, iv of TAMRA labeled compound treated for 45 mins prior to administration of cocaine injection; type: functional, organism-based
Mus musculus [15] = species: Mus musculus; test: Disruption of PICK1-GluA2 interaction in lumbar spinal cord lysates of male C57BL/6 mouse assessed as reduction in GluA2 S880 phosphorylation levels at 20 uM, IT and measured by immunoblot analysis; type: subcellular
Mus musculus [16] = species: Mus musculus; test: Anti-hypersensitive activity in mouse model of spared nerve injury-induced acute neuropathic pain assessed as reduction in GluA1 surface levels in spinal cord at 20 uM, IT by immunoblot analysis; type: functional, organism-based
Mus musculus [17] = species: Mus musculus; test: Anti-hypersensitive activity in mouse model of spared nerve injury-induced acute neuropathic pain assessed as increase in paw withdrawal threshold at 20 uM, IT by von Frey test; type: functional, organism-based
Rattus norvegicus [18] = test: Attenuation of cocaine reinstatement in 7 day cocaine treated rat assessed as reduction in cocaine seeking behaviour at 0.3 to 3 nmol/g, iv of TAMRA labeled compound treated for 45 mins prior to administration of cocaine injection; type: functional, organism-based; conditions: dose 0.3-3 nmol/g
Mus musculus [19] = species: Mus musculus; test: Binding affinity towards PICK1 in lumbar spinal cord lysates of mouse at 20 uM, IT([…]) and measured by immunoblot analysis; type: subcellular
Mus musculus [20] = species: Mus musculus; test: Antiallodynic activity in C57BL6/N mouse model of CFA-induced inflammatory pain assessed as increase in paw withdrawal threshold at 20 uM, IT by von Frey test; type: functional, organism-based
Mus musculus [21] = species: Mus musculus; test: Disruption of PICK1-GluA2 interaction in lumbar spinal cord lysates of male C57BL/6 mouse assessed as reduction in GluA1 surface levels at 20 uM, IT and measured by immunoblot analysis; type: subcellular
Mus musculus [22] = test: Anti-hypersensitive activity in mouse model of spared nerve injury-induced chronic neuropathic pain assessed as increase in paw withdrawal threshold at 30 mg/kg, ip after 2 hrs by von Frey test; type: functional, organism-based
[23] = as §1; type: cell-based; conditions: hippocampal neurone

| Structure (SMILES) | Activity (Mus musculus [1]) | IC50 [3] | Activity (Mus musculus [6]) | Stability [9] | Activity (Mus musculus [11]) | Activity (Mus musculus [12]) | Activity (Mus musculus [15]) | Activity (Mus musculus [16]) | Activity (Mus musculus [17]) | Activity (Mus musculus [19]) | Activity (Mus musculus [21]) | also measured |
| --- | --- | --- | --- | --- | --- | --- | --- | --- | --- | --- | --- | --- |
| CC[C@H](C)[C@H](NC(=O)[C@H](CCCCN)NC(=O)CNC(=O)[C@H](CC(C)C)NC(=O)[C@H](CC(C)C)NC(=O)[C@H](Cc1ccc(O)cc1)NC(=O)CNC(=O)[C@H](C)NC(=O)[C@H](CO)NC(=O)[C@H](CC(N)=O)NC(=O)[C@H](CC(C)C)NC(=O)[C@@H](NC(=O)[C@H](Cc1c[nH]c2ccccc12)NC(=O)CN)[C@@H](C)O)C(=O)N[C@@H](CC(N)=O)C(=O)N[C@@H](CC(C)C)C(=O)N[C@@H](CCCCN)C(=O)N[C@@H](C)C(=O)N[C@@H](CC(C)C)C(=O)N[C@@H](C)C(=O)N[C@@H](C)C(=O)N[C@@H](CC(C)C)C(=O)N[C@@H](C)C(=O)N[C@@H](CCCCN)C(=O)N[C@@H](CCCCN)C(=O)N[C@H](C(=O)N[C@@H](CC(C)C)C(=O)N(CCOCCOCCC(=O)N[C@@H](Cc1cnc[nH]1)C(=O)N[C@@H](Cc1c[nH]c2ccccc12)C(=O)N[C@@H](CC(C)C)C(=O)N[C@@H](CCCCN)C(=O)N[C@H](C(=O)O)C(C)C)CCOCCOCCC(=O)N[C@@H](Cc1cnc[nH]1)C(=O)N[C@@H](Cc1c[nH]c2ccccc12)C(=O)N[C@@H](CC(C)C)C(=O)N[C@@H](CCCCN)C(=O)N[C@H](C(=O)O)C(C)C)[C@@H](C)CC | Active | – | – | – | – | – | – | – | – | – | – | Ki [2]: 7.8 nM |
| CC(C)C[C@H](NC(=O)[C@H](Cc1c[nH]c2ccccc12)NC(=O)[C@@H](N)Cc1cnc[nH]1)C(=O)N[C@@H](CCCCN)C(=O)N[C@H](C(=O)O)C(C)C | – | Not Active | – | – | – | – | – | – | – | – | – | – |
| CC(C)C[C@H](NC(=O)[C@H](Cc1c[nH]c2ccccc12)NC(=O)[C@H](Cc1cnc[nH]1)NC(=O)CCOCCOCCN(CCOCCOCCC(=O)N[C@@H](Cc1cnc[nH]1)C(=O)N[C@@H](Cc1c[nH]c2ccccc12)C(=O)N[C@@H](CC(C)C)C(=O)N[C@@H](CCCCN)C(=O)N[C@H](C(=O)O)C(C)C)C(=O)[C@H](CCCNC(=N)N)NC(=O)[C@H](CCCNC(=N)N)NC(=O)[C@H](CCCNC(=N)N)NC(=O)[C@H](CCCNC(=N)N)NC(=O)[C@H](CCCNC(=N)N)NC(=O)[C@H](CCCNC(=N)N)NC(=O)[C@H](CCCCN)NC(=O)[C@H](CCCCN)NC(=O)[C@H](CCCNC(=N)N)NC(=O)CNC(=O)[C@@H](N)Cc1ccc(O)cc1)C(=O)N[C@@H](CCCCN)C(=O)N[C@H](C(=O)O)C(C)C | Active | – | Active | Stable | Active | inactive | Active | Active | Active | Active | inactive | Activity (Rattus norvegicus [4]): inactive; IC50 [5]: 7 nM; Activity (Rattus norvegicus [7]): inactive; Stability [8]: Stable; Activity (Mus musculus [10]): Active; IC50 ([3]; read-out: IC50): 1170 nM; Activity (Mus musculus [13]): Active; Activity (Hippocampal neurone): Active; Activity (Rattus norvegicus [14]): inactive; Activity (Rattus norvegicus [18]): Active; Activity (Mus musculus [20]): Active |
| NCC1(CC(=O)O)CCCCC1 | – | – | – | – | – | – | – | – | – | – | – | Activity (Mus musculus [22]): Active |
| CC(C)C[C@H](NC(=O)[C@H](Cc1c[nH]c2ccccc12)NC(=O)[C@H](Cc1cnc[nH]1)NC(=O)[C@H](CCCNC(=N)N)NC(=O)[C@H](CCCNC(=N)N)NC(=O)[C@H](CCCNC(=N)N)NC(=O)[C@H](CCC(N)=O)NC(=O)[C@H](CCCNC(=N)N)NC(=O)[C@H](CCCNC(=N)N)NC(=O)[C@H](CCCCN)NC(=O)[C@H](CCCCN)NC(=O)[C@H](CCCNC(=N)N)NC(=O)CNC(=O)[C@@H](N)Cc1ccc(O)cc1)C(=O)N[C@@H](CCCCN)C(=O)N[C@H](C(=O)O)C(C)C | – | Not Active | inactive | Unstable | inactive | inactive | inactive | inactive | inactive | inactive | inactive | IC50 [23]: Active |
